Several values for one entry are separate records, joined by “and”; a condition that tells them apart may be missing. Equal entries are not always repeated.
System: MDA-MB-231/TGL cells
Assay: metabolomic assay (polar metabolite profiling, mass spectrometry)
Type: cell-based, human
Method: Cells were seeded in a 10 cm cell culture plate with DMEM containing 10% FBS, 0.2 mM L-glutamine and 1% penicillin/streptomycin. After 16 hours of incubation, metabolites were extracted from the cells using 80% methanol. The remaining steps were carried out with no change according to the methods of Goncalves et al, PNAS, 115:4, E743-E752 (2018). All data analyses were done using MetaboAnalyst.
7 × 10^6 cells were seeded in 10-cm cell culture plates with DMEM containing 10% FBS, 0.2 mM L-glutamine and 1% penicillin/streptomycin. Additionally, MCF7/TGL/pQ was cultured in media containing 0.5 µgml^-1 puromycin and 25 mM HEPES. After 16 hours of incubation, metabolites were extracted from the cells using 80% methanol. The remaining steps were carried out by Weill Cornell Medicine Proteomics and Metabolomics Core Facility according to M. D. Goncalves et al., Proc Natl Acad Sci USA 115, E743-E752 (2018). All data analyses were done using MetaboAnalyst 4.0 (www.metaboanalyst.ca/).
To investigate whether 250 ppm CO mimics hypoxia, the HiF1α protein levels were examined in CO treated MCF7/TGL and MDA-MB-231/TGL cells. […] To determine whether 250 ppm CO affects metabolism, polar metabolites were profiled using two breast cancer cell lines, MCF7/TGL and MDA-MB-231/TGL (FIGS. 7-9).

[1] = MDA-MB-231/TGL cells treated with CO (250 ppm), replicates CO 1-3

[C-]#[O+] [CO, Carbon monoxide]
cis-aconitic acid (MCF7/TGL and MDA-MB-231/TGL cells, 250 ppm CO, 16 hours): significantly downregulated
Peak Height of metabolite intensity: 2-Hydroxycaproic acid (HMDB01624) [1]: 244,811 and 833,959 and 281,142
Peak Height of metabolite intensity: 2-Hydroxyvaleric acid (HMDB01863) [1]: 621,532 and 904,968 and 786,820
Peak Height of metabolite intensity: 2-Ketobutyric acid (HMDB00005) [1]: 5,289,178 and 6,027,442 and 5,724,353
Peak Height of metabolite intensity: 2-Ketohexanoic acid (HMDB01864) [1]: 21,644,820 and 23,261,950
Peak Height of metabolite intensity: 3-Hydroxyhippuric acid (HMDB06116) [1]: 67,709 and 54,023 and 55,195
Peak Height of metabolite intensity: 3-Hydroxymethylglutaric acid (HMDB00355) [1]: 20,353,060 and 19,480,200 and 19,066,660
Peak Height of metabolite intensity: 3-Phosphoglyceric acid (HMDB00807) [1]: 2,076,132 and 820,562 and 843,315
Peak Height of metabolite intensity: 3-hydroxyhexadecanoic acid (HMDB61658) [1]: 119,550 and 182,677 and 362,311
Peak Height of metabolite intensity: 4-Acetamidobutanoic acid (HMDB03681) [1]: 438,862 and 501,312 and 487,324
Peak Height of metabolite intensity: 4-Hydroxybenzaldehyde (HMDB11718) [1]: 1,623,875 and 1,610,244 and 2,163,467
Peak Height of metabolite intensity: 5-Adenosylhomocysteine (HMDB00939) [1]: 502,295 and 543,231 and 555,202
Peak Height of metabolite intensity: 5-Thymidylic acid (HMDB01227) [1]: 1,061,384 and 1,368,086 and 1,260,084
Peak Height of metabolite intensity: 5′-Methylthioadenosine (HMDB01173) [1]: 1,678,515 and 1,980,683 and 3,013,280
Peak Height of metabolite intensity: 6-Phosphogluconic acid (HMDB01316) [1]: 394,956 and 515,553 and 654,253
Peak Height of metabolite intensity: 7-Methylguanosine (HMDB01107) [1]: 25,667 and 34,657 and 32,703
Peak Height of metabolite intensity: (R)-3-Hydroxydecanoic acid (HMDB10725) [1]: 88,715 and 193,751 and 99,729
Peak Height of metabolite intensity: ADP (HMDB01341) [1]: 4,962,730 and 5,529,189 and 5,002,783
Peak Height of metabolite intensity: ADP-glucose (HMDB06557) [1]: 84,781 and 90,192 and 99,689
Peak Height of metabolite intensity: AICAR (HMDB01517) [1]: 32,080 and 59,426
Peak Height of metabolite intensity: Acetylcholine (HMDB00895) [1]: 34,254,070 and 37,448,230 and 42,218,910
Peak Height of metabolite intensity: Acetylcysteine (HMDB01890) [1]: 3,133,666 and 3,527,413 and 3,894,968
Peak Height of metabolite intensity: Adenine (HMDB00034) [1]: 1,219,554 and 812,836 and 907,390
Peak Height of metabolite intensity: Adenosine (HMDB00050) [1]: 18,973,870 and 624,270 and 424,559
Peak Height of metabolite intensity: Adenosine monophosphate (HMDB00045) [1]: 6,997,849 and 8,959,282 and 6,609,897
Peak Height of metabolite intensity: Adenosine triphosphate (HMDB00538) [1]: 7,254,237 and 6,217,538 and 7,426,501
Peak Height of metabolite intensity: Allantoic acid (HMDB01209) [1]: 66,783 and 51,760 and 61,927
Peak Height of metabolite intensity: Allantoin (HMDB00462) [1]: 1,362,548 and 1,445,842 and 1,605,951
Peak Height of metabolite intensity: Alpha-Lactose (HMDB00186) [1]: 636,775 and 666,969 and 547,770
Peak Height of metabolite intensity: Aminoadipic acid (HMDB00510) [1]: 5,352,894 and 5,983,553 and 6,501,110
Peak Height of metabolite intensity: Arachidonic acid (HMDB01043) [1]: 219,569 and 129,238 and 117,457
Peak Height of metabolite intensity: Argininosuccinic acid (HMDB00052) [1]: 397,796 and 561,328 and 632,101
Peak Height of metabolite intensity: Asymmetric dimethylarginine (HMDB01539) [1]: 5,492,503 and 6,220,486 and 6,753,139
Peak Height of metabolite intensity: Betaine (HMDB00043) [1]: 126,207,200 and 122,297,900 and 134,080,700
Peak Height of metabolite intensity: Biotin (HMDB00030) [1]: 28,122 and 15,310
Peak Height of metabolite intensity: CDP (HMDB01546) [1]: 536,936 and 604,322 and 492,208
Peak Height of metabolite intensity: CDP-Ethanolamine (HMDB01564) [1]: 100,228 and 130,601 and 162,582
Peak Height of metabolite intensity: Caprylic acid (HMDB00482) [1]: 470,899 and 477,590 and 472,338
Peak Height of metabolite intensity: Carnosine (HMDB00033) [1]: 2,256,265 and 2,245,049 and 2,446,163
Peak Height of metabolite intensity: Choline (HMDB00097) [1]: 108,427,800 and 109,880,900 and 111,858,100
Peak Height of metabolite intensity: Citicoline (HMDB01413) [1]: 361,538 and 444,892 and 574,461
Peak Height of metabolite intensity: Citric acid (HMDB00094) [1]: 74,805,210 and 82,630,710 and 89,689,600
Peak Height of metabolite intensity: Citrulline (HMDB00904) [1]: 15,240,380 and 14,266,830 and 19,605,850
Peak Height of metabolite intensity: Coenzyme A (HMDB01423) [1]: 109,174 and 125,366 and 106,848
Peak Height of metabolite intensity: Creatine (HMDB00064) [1]: 123,445,200 and 119,145,800 and 129,072,700
Peak Height of metabolite intensity: Creatinine (HMDB00562) [1]: 23,236,710 and 23,501,360 and 25,483,820
Peak Height of metabolite intensity: Cytidine (HMDB00089) [1]: 225,855 and 258,465 and 227,521
Peak Height of metabolite intensity: Cytidine monophosphate (HMDB00095) [1]: 724,977 and 871,719 and 625,602
Peak Height of metabolite intensity: Cytidine triphosphate (HMDB00082) [1]: 183,937 and 215,682 and 295,169
Peak Height of metabolite intensity: D-2,3-Dihydroxypropanoic acid (HMDB31818) [1]: 2,140,143 and 2,437,835 and 2,431,980
Peak Height of metabolite intensity: D-2-Hydroxyglutaric acid (HMDB00606) [1]: 3,167,321 and 3,985,443 and 4,584,429
Peak Height of metabolite intensity: D-Arabitol (HMDB00568) [1]: 3,445,547 and 3,545,938 and 4,135,015
Peak Height of metabolite intensity: D-Fructose (HMDB00660) [1]: 6,135,849 and 6,547,945 and 7,210,193
Peak Height of metabolite intensity: D-Glucose (HMDB00122) [1]: 36,851,430 and 39,288,740 and 42,369,140
Peak Height of metabolite intensity: D-Glyceraldehyde 3-phosphate (HMDB01112) [1]: 6,590,523 and 2,998,173 and 3,562,678
Peak Height of metabolite intensity: D-Ribose 5-phosphate (HMDB01548) [1]: 624,479 and 581,839 and 786,584
Peak Height of metabolite intensity: D-Ribose (HMDB00283) [1]: 2,183,962 and 2,605,392 and 2,639,392
Peak Height of metabolite intensity: D-Sedoheptulose 7-phosphate (HMDB01068) [1]: 561,321 and 572,202 and 625,243
Peak Height of metabolite intensity: DL-O-Phosphoserine (HMDB01721) [1]: 185,294 and 163,584 and 141,059
Peak Height of metabolite intensity: Deoxyinosine (HMDB00071) [1]: 8,871 and 6,834 and 15,777
Peak Height of metabolite intensity: Deoxyribose 5-phosphate (HMDB01031) [1]: 50,751 and 42,917 and 52,112
Peak Height of metabolite intensity: Deoxyuridine (HMDB00012) [1]: 40,015 and 22,277 and 25,003
Peak Height of metabolite intensity: Dimethylglycine (HMDB00092) [1]: 10,914,430 and 13,334,130 and 17,506,690
Peak Height of metabolite intensity: Erythritol (HMDB02994) [1]: 598,716 and 590,438 and 628,349
Peak Height of metabolite intensity: Fructose 1,6-bisphosphate (HMDB01058) [1]: 10,176,490 and 12,986,490 and 13,433,710
Peak Height of metabolite intensity: Fructose 6-phosphate (HMDB00124) [1]: 2,660,942 and 2,572,195 and 2,965,940
Peak Height of metabolite intensity: Fumaric acid (HMDB00134) [1]: 8,464,455 and 9,727,776 and 11,821,440
Peak Height of metabolite intensity: GDP-glucose (HMDB03351) [1]: 92,740 and 103,248 and 99,915
Peak Height of metabolite intensity: Gluconic acid (HMDB00625) [1]: 37,957,970 and 52,856,170 and 64,673,460
Peak Height of metabolite intensity: Glucosamine 6-phosphate (HMDB01254) [1]: 529,990 and 692,898 and 945,530
Peak Height of metabolite intensity: Glucose 6-phosphate (HMDB01401) [1]: 2,103,241 and 2,833,469 and 3,624,968
Peak Height of metabolite intensity: Glutathione (HMDB00125) [1]: 99,156,710 and 109,797,600 and 130,505,000
Peak Height of metabolite intensity: Glycerol3-phosphate (HMDB00126) [1]: 758,556 and 825,062 and 1,025,018
Peak Height of metabolite intensity: Glycerophosphocholine (HMDB00086) [1]: 347,562,900 and 361,214,700 and 419,624,900
Peak Height of metabolite intensity: Glycine (HMDB00123) [1]: 45,296,030 and 53,615,700 and 58,796,920
Peak Height of metabolite intensity: Guanosine (HMDB00133) [1]: 619,336 and 155,195 and 131,494
Peak Height of metabolite intensity: Guanosine diphosphate (HMDB01201) [1]: 493,573 and 471,968 and 538,827
Peak Height of metabolite intensity: Guanosine monophosphate (HMDB01397) [1]: 465,594 and 655,797 and 560,973
Peak Height of metabolite intensity: Hippuric acid (HMDB00714) [1]: 47,961 and 38,230 and 36,149
Peak Height of metabolite intensity: Hypotaurine (HMDB00965) [1]: 6,754,939 and 7,052,286 and 8,446,435
Peak Height of metabolite intensity: Hypoxanthine (HMDB00157) [1]: 211,957 and 135,595 and 141,122
Peak Height of metabolite intensity: Imidazolelactic acid (HMDB02320) [1]: 128,804 and 165,439 and 221,241
Peak Height of metabolite intensity: Indolelactic acid (HMDB00671) [1]: 84,732 and 90,304 and 155,173
Peak Height of metabolite intensity: Inosine (HMDB00195) [1]: 2,168,084 and 318,912 and 236,433
Peak Height of metabolite intensity: Inosinic acid (HMDB00175) [1]: 178,233 and 246,521 and 243,587
Peak Height of metabolite intensity: Kynurenic acid (HMDB00715) [1]: 51,692 and 41,122 and 61,792
Peak Height of metabolite intensity: L-Acetylcarnitine (HMDB00201) [1]: 106,933,600 and 121,142,500 and 148,690,900
Peak Height of metabolite intensity: L-Arginine (HMDB00517) [1]: 31,387,180 and 29,265,460 and 31,837,150
Peak Height of metabolite intensity: L-Asparagine (HMDB00168) [1]: 21,992,250 and 21,453,690 and 27,389,900
